Reference: patent US20070289889A1, “Biomarkers For The Prediction Of Drug-In Duced Diarrhea” (NOVARTIS AG, priority 2003, published 2007)

Tests used:
[1] = Rothermel et al. 2003; cited from earlier work
[2] = Blood cell, haematocrit and haemoglobin levels after epothilone B treatment by diarrhoea status; assay type: in vivo, human; details: for Basophils / Eosinophils / Haematocrit / Haemoglobin / Lymphocytes / Monocytes / Neutrophils / Platelets / White Blood Cells: CPG subjects after a single dose, mean ± SEM
Protocol: (§1) Statistical analysis. Fisher's Exact tests were performed to compare the demographics of the clinical pharmacogenetics participants to the overall trial population. An analysis of variance (ANOVA) was used to determine whether mRNA gene expression patterns correlated to either treatment status (baseline vs. treated), to experiencing diarrhoea (no diarrhoea vs. diarrhoea) or to whether specific blood cell type levels correlated to experiencing diarrhoea. All statistical analyses were performed using the SigmaStat 2.03 and SAS 8.02 programs.
Next, the levels of each blood cell type were compared between the two groups of subjects. Because these values were not determined at the blood draw timepoint, values for the second blood draw timepoint after baseline in cycle 1, corresponding to the first blood draw after the first epothilone B treatment (usually 24 hours after the […]) were used for this comparison. […] See, TABLE 4 and FIGS. 1-2.
Because females generally have lower levels of haematocrit and haemoglobin compared to males, a similar analysis was done by sex. As shown in TABLE 5 and FIGS. 1-2, similar trends in haematocrit and haemoglobin levels were identified for each sex. To determine if these associations exist for the entire trial subject population, the haematocrit and haemoglobin levels for all subjects at the second blood draw after baseline in cycle 1 were investigated.

white blood cells = experiment: mRNA expression profiling (Affymetrix U95A) of white blood cells, baseline vs. treated; assay type: in vivo, human; details: 3.6 mg/m^2, 24 hours after treatment
Protocol: Samples. Forty-three out of the ninety-one subjects who enrolled in the clinical trial consented to clinical pharmacogenetics analysis. For each subject, two clinical pharmacogenetics blood samples were scheduled: baseline and on Day 2 of Week 1 at hour 24. White blood cell (WBC) pellets were ficoll-hypaque separated from the whole blood by the investigator, frozen at −80° C. mRNA was extracted and profiled on the Affymetrix U95A GeneChip® platform.
mRNA expression profiling analysis. Any array with greater than 20% of genes called present by the Affymetrix MAS5 algorithm was a candidate for the analyses described herein. Affymetrix, “New statistical algorithms for monitoring gene expression on GeneChip® probe arrays.” Affymetrix Technical Notes. (2001). […] Forty-two out of the possible eighty-six arrays met the quality standards needed for analysis.
as §1
Analysis of baseline vs. treated mRNA profiles by treatment group. To determine if gene expression in white blood cells was altered by epothilone B at 24 hours after treatment, a comparison between baseline and treated expression profiles was performed.

[3] = CPG Females after a single dose, Diarrhoea (n = 10)
[4] = CPG Females after a single dose, No Diarrhoea (n = 4)
[5] = CPG Males after a single dose, Diarrhoea (n = 5)
[6] = CPG Males after a single dose, No Diarrhoea (n = 1)
[7] = all Females after treatment, Diarrhoea (n = 42)
[8] = all Females after treatment, No Diarrhoea (n = 22)
[9] = all Males after treatment, Diarrhoea (n = 16)
[10] = all Males after treatment, No Diarrhoea (n = 11)
[11] = all subjects after treatment, Diarrhoea any grade (n = 58)
[12] = all subjects after treatment, No Diarrhoea (n = 33)

For `C/C(=C\c1csc(C)n1)[C@@H]1C[C@@H]2O[C@]2(C)CCC[C@H](C)[C@H](O)[C@@H](C)C(=O)C(C)(C)[C@@H](O)CC(=O)O1` [epothilone B, Epothilone B], the “dose-limiting toxicity (diarrhoea)” value [1] is given as “dose-limiting toxicity”, the myelosuppression [1] is given as “no myelosuppression” and the HCT [2, 3] is given as 35.63 ± 0.01%. The HGB [2, 3] was 12.01 ± 0.35 g/dL, the HCT [2, 4] was 30.63 ± 0.20% and the HGB [2, 4] was 10.40 ± 0.20 g/dL. It also gave an HCT [2, 5] of 38.30 ± 1.77%, an HGB [2, 5] of 13.18 ± 0.62 g/dL and an HCT [2, 6] of 26.30%. The HGB [2, 6] was 8.70 g/dL, the Basophils ([2]; Diarrhoea (n = 15)) was 0.57 ± 0.12% and the Eosinophils ([2]; Diarrhoea (n = 15)) was 2.74 ± 0.45%. It also gave a Haematocrit ([2]; Diarrhoea (n = 15)) of 36.11 ± 0.91%, a Haemoglobin ([2]; Diarrhoea (n = 15)) of 12.40 ± 0.33 g/dL and a Lymphocytes ([2]; Diarrhoea (n = 15)) of 19.92 ± 1.92%. For the same compound, the Monocytes ([2]; Diarrhoea (n = 15)) was 7.88 ± 0.71%, the Neutrophils ([2]; Diarrhoea (n = 15)) was 68.81 ± 2.38% and the Platelets ([2]; Diarrhoea (n = 15)) was 259.20 ± 23.25 THOU/MM^3. The “White Blood Cells” value ([2]; Diarrhoea (n = 15)) was 5.60 ± 0.44 THOU/MM^3, the Basophils ([2]; No Diarrhoea (n = 5)) was 0.64 ± 0.22% and the Eosinophils ([2]; No Diarrhoea (n = 5)) was 3.42 ± 0.73%. The Haematocrit ([2]; No Diarrhoea (n = 5)) was 29.76 ± 0.87%, the Haemoglobin ([2]; No Diarrhoea (n = 5)) was 10.06 ± 0.84 g/dL and the Lymphocytes ([2]; No Diarrhoea (n = 5)) was 14.50 ± 0.74%. The Monocytes ([2]; No Diarrhoea (n = 5)) was 8.10 ± 0.74%, the Neutrophils ([2]; No Diarrhoea (n = 5)) was 73.60 ± 2.05% and the Platelets ([2]; No Diarrhoea (n = 5)) was 334.40 ± 54.80 THOU/MM^3. The “White Blood Cells” value ([2]; No Diarrhoea (n = 5)) was 5.92 ± 0.87 THOU/MM^3, the HCT [2, 7] was 34.34 ± 0.69% and the HGB [2, 7] was 11.56 ± 0.25 g/dL. For the same compound, the HCT [2, 8] was 33.17 ± 0.94%, the HGB [2, 8] was 11.13 ± 0.30 g/dL and the HCT [2, 9] was 32.84 ± 1.50%. For the same compound, the HGB [2, 9] was 12.46 ± 0.44 g/dL, the HCT [2, 10] was 37.48 ± 1.39% and the HGB [2, 10] was 11.06 ± 0.46 g/dL. For the same compound, the HCT [2, 11] was 35.21 ± 0.67%, the HGB [2, 11] was 11.81 ± 0.22 g/dL and the HCT [2, 12] was 33.06 ± 0.77%. The HGB [2, 12] was 11.11 ± 0.25 g/dL, the “Fold Change [treated/baseline] DAPK1 (40049_at) mRNA” value (white blood cells) was 2.1 and the “Fold Change [treated/baseline] DR1 (32621_at) mRNA” value (white blood cells) was 1.9. For the same compound, the “Fold Change [treated/baseline] JAK1 (1457_at) mRNA” value (white blood cells) was 1.7, the “Fold Change [treated/baseline] K-ALPHA-1 (32272_at) mRNA” value (white blood cells) was 1.7 and the “Fold Change [treated/baseline] MAP4K2 (187_at) mRNA” value (white blood cells) was −1.7. For the same compound, the “Fold Change [treated/baseline] RAP1A (1848_at) mRNA” value (white blood cells) was 1.9, the “Fold Change [treated/baseline] SURF2 (38210_at) mRNA” value (white blood cells) was 2.4 and the “Fold Change [treated/baseline] TCFL4 (32578_at) mRNA” value (white blood cells) was −1.6. For the same compound, the “Fold Change [treated/baseline] TM9SF1 (38835_at) mRNA” value (white blood cells) was 2.2, the “Fold Change [treated/baseline] ZFP36 (40448_at) mRNA” value (white blood cells) was 1.6 and the “Fold Change [treated/baseline] nuclear transcription factor Y, alpha (33297_at) mRNA” value (white blood cells) was −1.6.
